Test: xn = mol fraction of the nth substance listed
Conditions: Liquid, Vibrating tube method

CCCCCCCCCCC [undecane] + CCCCCCC
Conditions	mass density [kg/m3]
342.97 K, 1001 kPa, x2 = 0.9511	645.7
342.97 K, 2000 kPa, x2 = 0.9511	647
342.97 K, 3000 kPa, x2 = 0.9511	648.4
342.97 K, 4000 kPa, x2 = 0.9511	649.7
342.97 K, 5000 kPa, x2 = 0.9511	650.9
342.97 K, 6000 kPa, x2 = 0.9511	652.2
342.97 K, 7000 kPa, x2 = 0.9511	653.4
342.97 K, 8000 kPa, x2 = 0.9511	654.6
342.97 K, 9000 kPa, x2 = 0.9511	655.8
342.97 K, 10000 kPa, x2 = 0.9511	657
342.97 K, 11000 kPa, x2 = 0.9511	658.1
342.97 K, 12000 kPa, x2 = 0.9511	659.2
342.97 K, 13000 kPa, x2 = 0.9511	660.3
342.97 K, 14001 kPa, x2 = 0.9511	661.4
342.97 K, 15001 kPa, x2 = 0.9511	662.5
342.97 K, 16000 kPa, x2 = 0.9511	663.5
342.97 K, 17001 kPa, x2 = 0.9511	664.5
342.97 K, 18001 kPa, x2 = 0.9511	665.6
342.97 K, 19000 kPa, x2 = 0.9511	666.6
342.97 K, 20000 kPa, x2 = 0.9511	667.5
342.97 K, 21001 kPa, x2 = 0.9511	668.5
342.97 K, 22000 kPa, x2 = 0.9511	669.4
342.97 K, 23001 kPa, x2 = 0.9511	670.4
342.97 K, 24000 kPa, x2 = 0.9511	671.3
342.97 K, 25000 kPa, x2 = 0.9511	672.2
343.01 K, 2001 kPa, x2 = 0.5063	680.1
343.01 K, 3000 kPa, x2 = 0.5063	681.2
343.01 K, 4000 kPa, x2 = 0.5063	682.3
343.01 K, 5000 kPa, x2 = 0.5063	683.4
343.01 K, 6000 kPa, x2 = 0.5063	684.5
343.01 K, 7000 kPa, x2 = 0.5063	685.5
343.01 K, 8001 kPa, x2 = 0.5063	686.5
343.01 K, 9000 kPa, x2 = 0.5063	687.6
343.01 K, 10000 kPa, x2 = 0.5063	688.6
343.01 K, 11000 kPa, x2 = 0.5063	689.5
343.01 K, 12000 kPa, x2 = 0.5063	690.5
343.01 K, 13000 kPa, x2 = 0.5063	691.5
343.01 K, 14000 kPa, x2 = 0.5063	692.4
343.01 K, 15000 kPa, x2 = 0.5063	693.4
343.01 K, 16000 kPa, x2 = 0.5063	694.3
343.01 K, 17001 kPa, x2 = 0.5063	695.2
343.01 K, 18000 kPa, x2 = 0.5063	696.1
343.01 K, 19000 kPa, x2 = 0.5063	697
343.01 K, 20000 kPa, x2 = 0.5063	697.8
343.01 K, 21001 kPa, x2 = 0.5063	698.7
343.01 K, 22050 kPa, x2 = 0.5063	699.5
343.01 K, 23000 kPa, x2 = 0.5063	700.4
343.01 K, 24000 kPa, x2 = 0.5063	701.2
343.01 K, 25000 kPa, x2 = 0.5063	702
343.02 K, 1001 kPa, x2 = 0.05	701.5
343.02 K, 2001 kPa, x2 = 0.05	702.5
343.02 K, 3000 kPa, x2 = 0.05	703.6
343.02 K, 4000 kPa, x2 = 0.05	704.6
343.02 K, 5000 kPa, x2 = 0.05	705.5
343.02 K, 6000 kPa, x2 = 0.05	706.5
343.02 K, 7000 kPa, x2 = 0.05	707.5
343.02 K, 8001 kPa, x2 = 0.05	708.4
343.02 K, 9000 kPa, x2 = 0.05	709.3
343.02 K, 10000 kPa, x2 = 0.05	710.2
343.02 K, 11000 kPa, x2 = 0.05	711.1
343.02 K, 12000 kPa, x2 = 0.05	712
343.02 K, 13000 kPa, x2 = 0.05	712.9
343.02 K, 14000 kPa, x2 = 0.05	713.8
343.02 K, 15000 kPa, x2 = 0.05	714.6
343.02 K, 16000 kPa, x2 = 0.05	715.5
343.02 K, 17000 kPa, x2 = 0.05	716.3
343.02 K, 18000 kPa, x2 = 0.05	717.1
343.02 K, 19000 kPa, x2 = 0.05	717.9
343.02 K, 20000 kPa, x2 = 0.05	718.7
343.02 K, 21000 kPa, x2 = 0.05	719.5
343.02 K, 22001 kPa, x2 = 0.05	720.3
343.02 K, 23000 kPa, x2 = 0.05	721.1
343.02 K, 24000 kPa, x2 = 0.05	721.8
343.02 K, 25000 kPa, x2 = 0.05	722.6
343.03 K, 1000 kPa, x2 = 0.7482	662.4
343.03 K, 2000 kPa, x2 = 0.7482	663.6
343.03 K, 3000 kPa, x2 = 0.7482	664.9
343.03 K, 4000 kPa, x2 = 0.7482	666.1
343.03 K, 5000 kPa, x2 = 0.7482	667.2
343.03 K, 6000 kPa, x2 = 0.7482	668.4
343.03 K, 7000 kPa, x2 = 0.7482	669.5
343.03 K, 8000 kPa, x2 = 0.7482	670.6
343.03 K, 9000 kPa, x2 = 0.7482	671.7
343.03 K, 10000 kPa, x2 = 0.7482	672.8
343.03 K, 11000 kPa, x2 = 0.7482	673.9
343.03 K, 12000 kPa, x2 = 0.7482	674.9
343.03 K, 13000 kPa, x2 = 0.7482	675.9
343.03 K, 14000 kPa, x2 = 0.7482	677
343.03 K, 15000 kPa, x2 = 0.7482	678
343.03 K, 16000 kPa, x2 = 0.7482	678.9
343.03 K, 17000 kPa, x2 = 0.7482	679.9
343.03 K, 18000 kPa, x2 = 0.7482	680.8
343.03 K, 19000 kPa, x2 = 0.7482	681.8
